Experimental data from US5686613A, “Tridentate metal ligands of certain pyridine phosphonic acids” (priority 1996, dated 1997).
Like-named read-outs stand apart in the source and are kept apart here. Each block holds one compound with its values, some of them ahead of it.

Tests used:
[1] = Degradation of Fe(III) chelate ligand in H2S redox reaction in the presence of thiosulfate stabilizer; type: physicochemical; settings: for NTA (M) (concentration remaining) / NTA, % Remaining: Fe(III)-NTA, pH 8.5, 32 g Na2S2O3 per liter
From the text: Table 3 and FIG. 5 contain the data obtained from a run with the continuous glass reaction apparatus described above.

[2] = Degradation of Fe(III)-2,6 PDPA in H2S redox reaction without stabilizer (uv-vis spectrophotometric analysis), pH 8.5 and 25° C.; type: physicochemical; settings: pH 8.5, 25° C., no stabilizer
Experimental: Both ligands were evaluated in the iron chelate form.
The concentration of 2,6 PDPA was analyzed by the following uv-vis spectrophotometric measurements: to 1.0 mL of solution taken from the continuous reactor, 150 mg of NaOH in 15 mL water was added with stirring. The mixture was heated with a steam-bath for 2 hr, then allowed to stand at room temperature for 2 hr. […] The filtrate combined with the washings, was transferred to a 50 mL volumetric flask, and diluted to […] with 6M HCl. This solution was ready for uv-vis spectrophotometric analysis.

[3] = iron chelate, cited from earlier work
[4] = Experimental: The degradation resistances of pyridine-2-phosphonic-6-carboxylic acid (2P6C) and pyridine-2,6-diphosphonic acid (2,6-PDPA), prepared by the synthesis schemes presented in FIGS. 2 and 3, respectively, were evaluated as described below. Both ligands were evaluated in the iron chelate form.
1. Degradation of Fe(III)-2P6C at pH 8.5 and 25° C. (Fe(III)0.018M, 2P6C 0.036 M; H2 S flow rate=2.0 mL/min.)
(§1) The redox reaction was carried out in a continuous glass reaction apparatus as described in D. Chen, R. J. Motekaitis, A. E. Martell and D. McManus, Can. J. Chem., 71, 1524 (1993) which is incorporated herein by reference.
Preparation of iron-free sample. To 4.0 mL of solution taken from the continuous reactor, 100 mg of NaOH in 20 mL water were added dropwise with stirring. The mixture was heated to 70°-80° C. for 30 min. The Fe(OH)3 that precipitated was filtered off carefully and was washed several times with water. The filtrate was combined with the washings and was transferred to a 50 mL volumetric flask. The pH of the solution was adjusted with acid to 4.2, and then diluted with distilled water to 50 mL.
Operating conditions. Analytical column: I-SIL 5 C8, reverse phase 4.5×150 mm; Column temperature: ambient; mobile phase flow rate: 1.5 mL/min; Detector: UV at 275 nm, 0.20 AUFS; Sample volume: 20 microliter; Recorder: 10 mV full-scale; Chart speed: 0.5 cm/min. The mobile phase contained: 0.0010 M Cu(II), 60:40 H2 O: MeOH, 2% HOAc, 0.2% CH3 (CH2)15 (CH3)3 NBr, adjusted to pH 4.2 With NaOH solution.
Using the same test conditions described above, the degradation of nitrilotriacetic acid (NTA) was evaluated.

[5] = remark: listed apart in the source
Experimental: as §1
Experimental runs were also conducted with 2P6C, with and without K2 SO3 added as a stabilizer.

[6] = h2s redox reactor, 100 h, 36000 µM, pH 8.5

Structure (SMILES): O=P(O)(O)c1cccc(P(=O)(O)O)n1 [2,6-PDPA, pyridine-2,6-diphosphonic acid]
degradation in the presence of thiosulfate ([1]; after 100 hr of operation, thiosulfate): no detectable degradation was observed | degradation ([2]; 100 hr, Fe(III) 0.0090 M, 2,6 PDPA 0.018 M): no significant degradation was observed | degradation, estimated ([2]; over 100 hr, 18000 µM): less than 5%

Structure (SMILES): O=C(O)c1cccc(C(=O)O)n1 [2,6-pyridinedicarboxylic acid]
precipitation of ferric hydroxide from ferric chelate ([3]; normal pH of the process): unacceptable precipitation of ferric hydroxide | resistance to catalyst degradation [3]: good resistance to catalyst degradation

Structure (SMILES): O=C(O)c1cccc(P(=O)(O)O)n1 [2P6C, pyridine-2-phosphonic-6-carboxylic acid]
degradation compared with NTA [4]: degrades much more slowly than NTA | 2P6C % Remaining ([4]; 0 min, 36000 uM, pH 8.5): 100.0% | 2P6C % Remaining ([4]; h2s redox reactor, 25 h, 36000 µM, pH 8.5): 94.4% | 2P6C % Remaining ([4]; h2s redox reactor, 50 h, 36000 µM, pH 8.5): 86.1% | 2P6C % Remaining ([4]; h2s redox reactor, 84 h, 36000 µM, pH 8.5): 83.3% | 2P6C % Remaining [4, 6]: 80.6% | 2P6C lost after redox reaction [4, 6]: about 20% | degradation during the redox reaction ([4]; pH 8.5): degrades very slowly | effect of hydroxylation/degradation on the process ([4]; pH 8.5): no deleterious effect on the process is observed | degradation in the presence of thiosulfate [1]: no detectable degradation was observed | 2P6C % Remaining ([5]; 0 min): 100.0% | 2P6C % Remaining ([5]; h2s reactor, 5% k2so3, 2 h): 100.0% | 2P6C % Remaining ([5]; h2s reactor, 5% k2so3, 20 h): 97.7% | 2P6C % Remaining ([5]; h2s reactor, 5% k2so3, 44 h): 97.6% | 2P6C % Remaining ([5]; h2s reactor, 5% k2so3, 68 h): 97.4% | 2P6C % Remaining ([5]; h2s reactor, 5% k2so3, 92 h): 98.9%

NTA, % Remaining ([4]; 0 min, pH 8.5): 100.0% | NTA, % Remaining ([4]; h2s redox reactor, 12 h, pH 8.5): 75.7% | NTA, % Remaining ([4]; h2s redox reactor, 20 h, pH 8.5): 65.7% | NTA, % Remaining ([4]; h2s redox reactor, 30 h, pH 8.5): 52.4% | NTA, % Remaining ([4]; h2s redox reactor, 40 h, pH 8.5): 49.4% | NTA, % Remaining ([4]; h2s redox reactor, 64 h, pH 8.5): 32.9% | NTA, % Remaining ([4]; h2s redox reactor, 77 h, pH 8.5): 26.2% | degradation with thiosulfate [1]: much slower when thiosulfate is added | rate of degradation with thiosulfate [1]: still measurable | NTA (M) (concentration remaining) ([1]; 0 hr): 0.0362 M | NTA, % Remaining ([1]; 0 hr): 100.0% | NTA (M) (concentration remaining) ([1]; 14.0 hr): 0.0344 M | NTA, % Remaining ([1]; 14.0 hr): 95.0% | NTA (M) (concentration remaining) ([1]; 26.0 hr): 0.0333 M | NTA, % Remaining ([1]; 26.0 hr): 92.0% | NTA (M) (concentration remaining) ([1]; 39.0 hr): 0.0320 M | NTA, % Remaining ([1]; 39.0 hr): 88.4% | NTA (M) (concentration remaining) ([1]; 50.0 hr): 0.0317 M | NTA, % Remaining ([1]; 50.0 hr): 87.6% | NTA (M) (concentration remaining) ([1]; 66.0 hr): 0.0306 M | NTA, % Remaining ([1]; 66.0 hr): 84.5% | NTA (M) (concentration remaining) ([1]; 80.0 hr): 0.0297 M | NTA, % Remaining ([1]; 80.0 hr): 82.0% | NTA (M) (concentration remaining) ([1]; 99.0 hr): 0.0293 M | NTA, % Remaining ([1]; 99.0 hr): 80.9%
Structure (SMILES): O=C(O)CN(CC(=O)O)CC(=O)O [NTA, nitrilotriacetic acid]
